{"source": "patent US11660307B2", "about": "“Methods for treating SARS CoV-2 infections” (Gilead Sciences, Inc., priority 2020, dated 2023)", "key": {"[1]": {"system": "SARS-CoV-2", "experiment": "microbe, parasite or virus in culture", "format": "cell-based", "settings": "Severe acute respiratory syndrome coronavirus 2, 48 h; read-out: SARS-CoV-2 (2-day) EC50"}, "[2]": {"experiment": "A549 cytotoxicity analysis (CellTiter-Glo)", "format": "cell-based", "settings": "human", "protocol": "The cytotoxicity of compounds was determined in A549 cells in the following manner. Compounds (200 nL) were spotted onto 384-well Grenier plates prior to seeding 5000 A549 cells/well in a volume of 40 μL culture medium. The plates were incubated at 37° C. for 48 hours with 5% CO2. On day 2, 40 μL of CellTiter-Glo (Promega) was added and mixed 5 times. Plates were read for luminescence on an Envision (PerkinElmer) and the CC50 (compound concentration for reducing 50% of luminescence signal as a measure of cell viability) were calculated using a nonlinear regression model (four parameters)."}, "[3]": {"system": "2019-nCoV", "experiment": "Intravenous Compound 32 against 2019-nCoV in rhesus monkeys", "format": "in vivo", "settings": "10 mg/kg IV once daily, vs vehicle"}, "[4]": {"settings": "A549 cells, 48 hours, CellTiter-Glo, read-out: A549 Cytotoxicity (2-day) CC50"}}, "note": "Read-outs that look alike come from different tables or passages of the source.", "data": [{"compound": "N#C[C@@]1(c2ccc3c(N)ncnn23)O[C@H](CO)[C@@H](O)[C@H]1O", "values": [{"measurement": "EC50", "setting": "[1]", "value": "0.869 ± 0.289", "unit": "µM"}, {"measurement": "CC50 at 48 h", "setting": "[2]", "value": "> 50", "unit": "µM"}]}, {"compound": "CCC(CC)COC(=O)[C@H](C)N[P@@](=O)(OC[C@H]1O[C@@](C#N)(c2ccc3c(N)ncnn23)[C@H](O)[C@@H]1O)Oc1ccccc1", "values": [{"measurement": "EC50", "setting": "[1]", "value": "0.272 ± 0.075", "unit": "µM"}, {"measurement": "CC50 at 48 h", "setting": "[2]; [4]", "value": 17.7, "unit": "µM"}]}, {"compound": "CCC(CC)COC(=O)[C@H](C)N[P@](=O)(OC[C@H]1O[C@@](C#N)(c2ccc3c(N)ncnn23)[C@H](O)[C@@H]1O)Oc1ccccc1", "note": "[Compound 32, (S)-2-ethylbutyl 2-(((S)-(((2R,3S,4R,5R)-5-(4-aminopyrrolo[2,1-f][1,2,4]triazin-7-yl)-5-cyano-3,4-dihydroxytetrahydrofuran-2-yl)methoxy)(phenoxy)phosphoryl)amino)propanoate]", "values": [{"measurement": "cumulative clinical scores", "setting": "[3]", "value": "notably higher in vehicle-treated animals"}, {"measurement": "disease symptoms", "setting": "[3]", "value": "less pronounced"}]}, {"compound": "CCC(CC)COC(=O)[C@H](C)N[P@](=O)(OC[C@H]1O[C@@](C#N)(c2ccc3c(N)ncnn23)[C@H](O)[C@@H]1O)Oc1ccccc1", "note": "[drawing 141]", "values": [{"measurement": "EC50", "setting": "[1]", "value": "0.135 ± 0.02", "unit": "µM"}, {"measurement": "CC50 at 48 h", "setting": "[2]; [4]", "value": "> 25.2", "unit": "µM"}]}]}
